Legend:
Type in all cases: biochemical
PIM1 = molecular target: T1, PIM1 (Homo sapiens, UniProt P11309); assay: PIM1 phosphorylation assay; settings: 100 µM ATP
T1 construct: The source of HIPK2 and of all of the other protein kinases used for specificity assays is as described elsewhere
Description: PIM1, CK2, CK1 phosphorylation assays were performed following similar procedures used for HIPK2 except that preincubation was omitted. In detail, PIM1 activity was determined at 100 µM ATP concentration and in the presence of 30 µM synthetic peptide substrate […]. CK2 and CK1 activities were assayed in a buffer containing 50 mM Tris/HCl (pH 7.5), 100 mM NaCl, 12 mM MgCl2, 100 µM specific peptide substrate […] (for CK2), or 200 µM […] (for CK1) and 20 µM [γ-^33P]ATP (500–1000 c.p.m./pmol).

HIPK2 = molecular target: T2, HIPK2 (Homo sapiens, UniProt Q9H2X6); assay: Kinetic analysis of HIPK2 inhibition (Lineweaver-Burk)
T2 construct: The source of HIPK2 and of all of the other protein kinases used for specificity assays is as described elsewhere
T2 sequence (Q9H2X6 whole entry): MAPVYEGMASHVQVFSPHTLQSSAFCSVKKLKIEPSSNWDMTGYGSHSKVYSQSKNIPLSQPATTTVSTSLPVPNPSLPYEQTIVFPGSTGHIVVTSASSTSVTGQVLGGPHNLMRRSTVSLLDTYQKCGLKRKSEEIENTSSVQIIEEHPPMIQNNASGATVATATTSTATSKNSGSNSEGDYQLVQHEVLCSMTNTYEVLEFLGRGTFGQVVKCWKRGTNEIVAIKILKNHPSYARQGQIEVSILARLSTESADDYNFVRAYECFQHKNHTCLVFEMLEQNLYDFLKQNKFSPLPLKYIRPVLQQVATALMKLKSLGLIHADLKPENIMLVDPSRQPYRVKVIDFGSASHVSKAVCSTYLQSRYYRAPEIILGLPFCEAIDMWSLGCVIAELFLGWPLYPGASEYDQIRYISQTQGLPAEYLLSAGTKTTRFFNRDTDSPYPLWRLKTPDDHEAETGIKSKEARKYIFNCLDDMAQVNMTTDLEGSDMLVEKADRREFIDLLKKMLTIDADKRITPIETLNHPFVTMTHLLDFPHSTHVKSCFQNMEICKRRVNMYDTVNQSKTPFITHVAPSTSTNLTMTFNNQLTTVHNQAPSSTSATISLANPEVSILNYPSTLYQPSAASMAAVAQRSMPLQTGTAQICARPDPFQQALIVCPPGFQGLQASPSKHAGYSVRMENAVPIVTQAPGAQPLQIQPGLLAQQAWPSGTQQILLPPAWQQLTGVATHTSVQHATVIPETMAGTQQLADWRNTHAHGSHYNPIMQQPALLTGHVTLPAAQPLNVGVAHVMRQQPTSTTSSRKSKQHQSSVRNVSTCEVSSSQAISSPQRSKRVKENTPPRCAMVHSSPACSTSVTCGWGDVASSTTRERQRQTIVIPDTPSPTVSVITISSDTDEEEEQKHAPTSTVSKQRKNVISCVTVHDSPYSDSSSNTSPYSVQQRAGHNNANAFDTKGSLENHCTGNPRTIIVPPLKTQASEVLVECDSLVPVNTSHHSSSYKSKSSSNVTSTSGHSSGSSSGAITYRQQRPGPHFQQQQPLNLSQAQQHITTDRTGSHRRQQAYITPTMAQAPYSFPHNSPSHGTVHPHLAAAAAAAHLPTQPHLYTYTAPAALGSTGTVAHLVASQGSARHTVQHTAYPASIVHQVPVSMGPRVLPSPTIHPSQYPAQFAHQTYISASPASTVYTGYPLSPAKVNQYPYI
Description: Initial velocities were determined at each of the ATP concentration tested, at 1 mM […] peptide concentration. Km values were calculated either in the absence or in the presence of increasing concentrations of inhibitor, from Lineweaver-Burk double-reciprocal plots of the data. Inhibition constants were then calculated by linear regression analysis of Km/Vmax versus inhibitor concentration plots.

ABL = ABL (Homo sapiens, UniProt P00519); assay: Kinase panel selectivity profiling; settings: TBID 1 μM, 125 kinase panel, read-out: % activity of the enzyme
Description: (§1) The source of HIPK2 and of all of the other protein kinases used for specificity assays is as described elsewhere.
(§2) Conditions for the activity assays of all other protein kinases tested in selectivity experiments are as described or referenced in [9].

AMPK = assay: Kinase panel selectivity profiling; settings: TBID 1 μM, 125 kinase panel
Description: as §1, §2

CDK2-Cyclin A = CDK2-Cyclin A (Homo sapiens, UniProt P24941); assay: Kinase panel selectivity profiling; settings: TBID 1 μM, 125 kinase panel, read-out: % activity of the enzyme
Description: as §1, §2

CK1 = CK1 (Homo sapiens, UniProt P48730); assay: Kinase panel selectivity profiling; settings: TBID 1 μM, 125 kinase panel, read-out: % activity of the enzyme
Sequence of CK1 (P48730 whole entry): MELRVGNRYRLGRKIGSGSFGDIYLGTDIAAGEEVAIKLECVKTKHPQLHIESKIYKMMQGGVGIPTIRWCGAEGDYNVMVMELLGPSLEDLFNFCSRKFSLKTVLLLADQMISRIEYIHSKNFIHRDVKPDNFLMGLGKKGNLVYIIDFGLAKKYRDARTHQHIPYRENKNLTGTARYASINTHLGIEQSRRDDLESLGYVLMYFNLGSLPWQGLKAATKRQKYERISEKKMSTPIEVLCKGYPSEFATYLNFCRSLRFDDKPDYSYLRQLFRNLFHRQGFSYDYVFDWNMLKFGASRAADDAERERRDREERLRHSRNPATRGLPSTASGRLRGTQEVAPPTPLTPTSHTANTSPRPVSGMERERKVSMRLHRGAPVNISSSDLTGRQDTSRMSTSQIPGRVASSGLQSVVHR
Description: as §1, §2

CK2 = CK2 (Homo sapiens, UniProt P68400); assay: Kinase panel selectivity profiling
Sequence of CK2 (P68400 whole entry): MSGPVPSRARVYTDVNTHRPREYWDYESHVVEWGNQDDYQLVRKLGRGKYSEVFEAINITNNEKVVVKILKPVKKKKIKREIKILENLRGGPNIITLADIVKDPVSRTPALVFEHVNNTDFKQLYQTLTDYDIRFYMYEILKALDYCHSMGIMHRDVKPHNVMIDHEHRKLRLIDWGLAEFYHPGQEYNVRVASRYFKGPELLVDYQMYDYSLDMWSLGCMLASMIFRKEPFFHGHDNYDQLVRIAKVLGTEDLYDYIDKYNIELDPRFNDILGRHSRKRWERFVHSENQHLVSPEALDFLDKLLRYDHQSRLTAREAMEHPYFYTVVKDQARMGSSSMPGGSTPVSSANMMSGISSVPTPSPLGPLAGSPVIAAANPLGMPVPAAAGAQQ
Description: as §1, §2

DYRK3 = DYRK3 (Homo sapiens, UniProt O43781); assay: Kinase panel selectivity profiling; settings: TBID 1 μM, 125 kinase panel, read-out: % activity of the enzyme
Description: as §1, §2

ERK1 = ERK1 (Homo sapiens, UniProt P27361); assay: Kinase panel selectivity profiling; settings: TBID 1 μM, 125 kinase panel, read-out: % activity of the enzyme
Description: as §1, §2

ERK2 = ERK2 (Homo sapiens, UniProt P28482); assay: Kinase panel selectivity profiling; settings: TBID 1 μM, 125 kinase panel, read-out: % activity of the enzyme
Description: as §1, §2

IKKe = IKKe (Homo sapiens, UniProt Q14164); assay: Kinase panel selectivity profiling; settings: TBID 1 μM, 125 kinase panel, read-out: % activity of the enzyme
Description: as §1, §2

IRAK4 = IRAK4 (Homo sapiens, UniProt Q9NWZ3); assay: Kinase panel selectivity profiling; settings: TBID 1 μM, 125 kinase panel, read-out: % activity of the enzyme
Description: as §1, §2

MAPKAP-K3 = MAPKAP-K3 (Homo sapiens, UniProt Q16644); assay: Kinase panel selectivity profiling; settings: TBID 1 μM, 125 kinase panel, read-out: % activity of the enzyme
Description: as §1, §2

MARK2 = MARK2 (Homo sapiens, UniProt Q7KZI7); assay: Kinase panel selectivity profiling; settings: TBID 1 μM, 125 kinase panel, read-out: % activity of the enzyme
Description: as §1, §2

MKK1 = MKK1 (Homo sapiens, UniProt Q02750); assay: Kinase panel selectivity profiling; settings: TBID 1 μM, 125 kinase panel, read-out: % activity of the enzyme
Description: as §1, §2

MKK2 = MKK2 (Homo sapiens, UniProt P36507); assay: Kinase panel selectivity profiling; settings: TBID 1 μM, 125 kinase panel, read-out: % activity of the enzyme
Sequence of MKK2 (P36507 whole entry): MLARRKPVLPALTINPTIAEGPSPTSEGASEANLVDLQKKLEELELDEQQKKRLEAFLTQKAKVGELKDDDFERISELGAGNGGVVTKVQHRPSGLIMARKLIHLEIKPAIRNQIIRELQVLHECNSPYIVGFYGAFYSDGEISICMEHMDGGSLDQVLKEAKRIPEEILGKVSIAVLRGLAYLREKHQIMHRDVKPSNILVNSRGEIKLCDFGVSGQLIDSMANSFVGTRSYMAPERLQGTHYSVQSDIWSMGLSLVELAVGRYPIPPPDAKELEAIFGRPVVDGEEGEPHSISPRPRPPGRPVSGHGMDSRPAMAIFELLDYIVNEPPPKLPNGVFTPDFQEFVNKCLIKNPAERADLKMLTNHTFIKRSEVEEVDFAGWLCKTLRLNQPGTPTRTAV
Description: as §1, §2

MLK3 = MLK3 (Homo sapiens, UniProt Q16584); assay: Kinase panel selectivity profiling; settings: TBID 1 μM, 125 kinase panel, read-out: % activity of the enzyme
Description: as §1, §2

MNK1 = MNK1 (Homo sapiens, UniProt Q9BUB5); assay: Kinase panel selectivity profiling; settings: TBID 1 μM, 125 kinase panel, read-out: % activity of the enzyme
Description: as §1, §2

MNK2 = MNK2 (Homo sapiens, UniProt Q9HBH9); assay: Kinase panel selectivity profiling; settings: TBID 1 μM, 125 kinase panel, read-out: % activity of the enzyme
Description: as §1, §2

MPSK1 = MPSK1 (Homo sapiens, UniProt O75716); assay: Kinase panel selectivity profiling; settings: TBID 1 μM, 125 kinase panel, read-out: % activity of the enzyme
Sequence of MPSK1 (O75716 whole entry): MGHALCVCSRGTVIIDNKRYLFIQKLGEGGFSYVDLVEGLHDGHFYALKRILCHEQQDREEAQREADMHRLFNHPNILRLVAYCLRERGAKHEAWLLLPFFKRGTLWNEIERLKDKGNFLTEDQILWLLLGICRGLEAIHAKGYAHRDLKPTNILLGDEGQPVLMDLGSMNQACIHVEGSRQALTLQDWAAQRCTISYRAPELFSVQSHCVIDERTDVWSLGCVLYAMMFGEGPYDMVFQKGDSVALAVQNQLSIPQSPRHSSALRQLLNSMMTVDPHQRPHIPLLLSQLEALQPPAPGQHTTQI
Description: as §1, §2

MSK1 = MSK1 (Homo sapiens, UniProt O75582); assay: Kinase panel selectivity profiling; settings: TBID 1 μM, 125 kinase panel, read-out: % activity of the enzyme
Description: as §1, §2

NEK2a = NEK2a (Homo sapiens, UniProt P51955); assay: Kinase panel selectivity profiling; settings: TBID 1 μM, 125 kinase panel, read-out: % activity of the enzyme
Description: as §1, §2

PAK4 = PAK4 (Homo sapiens, UniProt O96013); assay: Kinase panel selectivity profiling; settings: TBID 1 μM, 125 kinase panel, read-out: % activity of the enzyme
Description: as §1, §2

PDK1 = PDK1 (Homo sapiens, UniProt O15530); assay: Kinase panel selectivity profiling; settings: TBID 1 μM, 125 kinase panel, read-out: % activity of the enzyme
Description: as §1, §2

PIM3 = PIM3 (Homo sapiens, UniProt Q86V86); assay: Kinase panel selectivity profiling; settings: TBID 1 μM, 125 kinase panel, read-out: % activity of the enzyme
Description: as §1, §2

PKCa = PKCa (Homo sapiens, UniProt P17252); assay: Kinase panel selectivity profiling; settings: TBID 1 μM, 125 kinase panel, read-out: % activity of the enzyme
Description: as §1, §2

RIPK2 = RIPK2 (Homo sapiens, UniProt O43353); assay: Kinase panel selectivity profiling; settings: TBID 1 μM, 125 kinase panel, read-out: % activity of the enzyme
Description: as §1, §2

RSK1 = RSK1 (Homo sapiens, UniProt Q15418); assay: Kinase panel selectivity profiling; settings: TBID 1 μM, 125 kinase panel, read-out: % activity of the enzyme
Description: as §1, §2

S6K1 = S6K1 (Homo sapiens, UniProt P23443); assay: Kinase panel selectivity profiling; settings: TBID 1 μM, 125 kinase panel, read-out: % activity of the enzyme
Description: as §1, §2

SGK1 = SGK1 (Homo sapiens, UniProt O00141); assay: Kinase panel selectivity profiling; settings: TBID 1 μM, 125 kinase panel, read-out: % activity of the enzyme
Sequence of SGK1 (O00141 whole entry): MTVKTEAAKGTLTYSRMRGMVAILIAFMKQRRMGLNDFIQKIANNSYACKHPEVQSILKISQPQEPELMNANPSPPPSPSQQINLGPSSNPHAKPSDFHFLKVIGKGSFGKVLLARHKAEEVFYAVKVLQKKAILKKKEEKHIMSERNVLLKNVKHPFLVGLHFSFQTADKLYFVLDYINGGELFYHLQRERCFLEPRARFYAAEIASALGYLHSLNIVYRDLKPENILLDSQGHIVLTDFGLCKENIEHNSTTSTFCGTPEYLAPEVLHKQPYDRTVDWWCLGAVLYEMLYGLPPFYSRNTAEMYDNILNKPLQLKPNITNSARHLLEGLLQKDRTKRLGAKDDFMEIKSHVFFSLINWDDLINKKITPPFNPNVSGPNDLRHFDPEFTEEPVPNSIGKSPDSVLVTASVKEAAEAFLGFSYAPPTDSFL
Description: as §1, §2

STK33 = STK33 (Homo sapiens, UniProt Q9BYT3); assay: Kinase panel selectivity profiling; settings: TBID 1 μM, 125 kinase panel, read-out: % activity of the enzyme
Description: as §1, §2

Src = Src (Homo sapiens, UniProt P12931); assay: Kinase panel selectivity profiling; settings: TBID 1 μM, 125 kinase panel, read-out: % activity of the enzyme
Sequence of Src (P12931 whole entry): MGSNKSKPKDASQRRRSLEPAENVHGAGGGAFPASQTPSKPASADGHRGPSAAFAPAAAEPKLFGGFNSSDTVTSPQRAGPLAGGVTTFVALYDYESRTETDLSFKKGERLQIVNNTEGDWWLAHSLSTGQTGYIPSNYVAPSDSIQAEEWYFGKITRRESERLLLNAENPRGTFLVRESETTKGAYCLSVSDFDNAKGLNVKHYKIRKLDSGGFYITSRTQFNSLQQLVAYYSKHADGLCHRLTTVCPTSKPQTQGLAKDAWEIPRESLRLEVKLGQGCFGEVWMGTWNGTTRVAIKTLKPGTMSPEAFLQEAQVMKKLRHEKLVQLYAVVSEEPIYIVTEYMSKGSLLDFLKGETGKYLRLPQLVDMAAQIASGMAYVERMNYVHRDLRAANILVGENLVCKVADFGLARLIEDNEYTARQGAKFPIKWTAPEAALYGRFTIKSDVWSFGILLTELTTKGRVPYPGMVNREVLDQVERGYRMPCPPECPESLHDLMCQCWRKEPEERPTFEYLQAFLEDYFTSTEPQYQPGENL
Description: as §1, §2

TAK1 = TAK1 (Homo sapiens, UniProt O43318); assay: Kinase panel selectivity profiling; settings: TBID 1 μM, 125 kinase panel, read-out: % activity of the enzyme
Description: as §1, §2

TESK1 = TESK1 (Homo sapiens, UniProt Q15569); assay: Kinase panel selectivity profiling; settings: TBID 1 μM, 125 kinase panel, read-out: % activity of the enzyme
Description: as §1, §2

TIE2 = TIE2 (Homo sapiens, UniProt Q02763); assay: Kinase panel selectivity profiling; settings: TBID 1 μM, 125 kinase panel, read-out: % activity of the enzyme
Description: as §1, §2

p38a MAPK = p38a MAPK (Homo sapiens, UniProt Q16539); assay: Kinase panel selectivity profiling; settings: TBID 1 μM, 125 kinase panel, read-out: % activity of the enzyme
Description: as §1, §2

T1 sequence (P11309 whole entry, species assumed): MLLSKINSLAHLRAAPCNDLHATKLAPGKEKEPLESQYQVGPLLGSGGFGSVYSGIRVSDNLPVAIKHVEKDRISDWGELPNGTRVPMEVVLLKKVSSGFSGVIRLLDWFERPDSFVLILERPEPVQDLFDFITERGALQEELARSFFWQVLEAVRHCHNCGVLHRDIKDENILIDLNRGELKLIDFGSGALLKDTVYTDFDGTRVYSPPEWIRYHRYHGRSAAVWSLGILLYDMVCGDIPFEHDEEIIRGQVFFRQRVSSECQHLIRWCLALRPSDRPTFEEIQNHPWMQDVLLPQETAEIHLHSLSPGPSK

Structure (SMILES): O=C1c2c(Br)c(Br)c(Br)c(Br)c2C(=O)N1c1ncc[nH]1 [TBID, 4,5,6,7-Tetrabromo-2-(1H-imidazol-2-yl)isoindoline-1,3-dione]
- IC50 (PIM1): > 40 µM
- Ki (HIPK2): 200 nM
- mode of inhibition of HIPK2 (HIPK2; with respect to ATP): competitive with respect to ATP
- activity at 1 µM (ABL): 99%
- % activity of the enzyme (AMPK): 87%
- activity at 1 µM (CDK2-Cyclin A): 98%
- activity at 1 µM (CK1): 105%
- remaining activity at 10 µM (CK2; 10 µM TBID, panel of 76 protein kinases, read-out: residual activity): 48%
- activity at 1 µM (CK2; TBID 1 μM, 125 kinase panel, read-out: % activity of the enzyme): 87%
- activity at 1 µM (DYRK3): 101%
- activity at 1 µM (ERK1): 98%
- activity at 1 µM (ERK2): 91%
- activity at 1 µM (IKKe): 85%
- activity at 1 µM (IRAK4): 101%
- activity at 1 µM (MAPKAP-K3): 98%
- activity at 1 µM (MARK2): 100%
- activity at 1 µM (MKK1): 115%
- activity at 1 µM (MKK2): 96%
- activity at 1 µM (MLK3): 97%
- activity at 1 µM (MNK1): 106%
- activity at 1 µM (MNK2): 113%
- activity at 1 µM (MPSK1): 93%
- activity at 1 µM (MSK1): 89%
- activity at 1 µM (NEK2a): 89%
- activity at 1 µM (PAK4): 99%
- activity at 1 µM (PDK1): 97%
- activity at 1 µM (PIM3): 101%
- activity at 1 µM (PKCa): 102%
- activity at 1 µM (RIPK2): 102%
- activity at 1 µM (RSK1): 93%
- activity at 1 µM (S6K1): 94%
- activity at 1 µM (SGK1): 98%
- activity at 1 µM (STK33): 111%
- activity at 1 µM (Src): 83%
- activity at 1 µM (TAK1): 78%
- activity at 1 µM (TESK1): 103%
- activity at 1 µM (TIE2): 115%
- activity at 1 µM (p38a MAPK): 88%
